Results from the NIST ThermoML archive (doi:10.1016/j.fluid.2011.07.002).
Numbers after ± are expanded uncertainties.

Details: Liquid, Closed cell (Static) method

vapor or sublimation pressure (278.15 K) [kPa] | vapor or sublimation pressure (283.15 K) [kPa] | vapor or sublimation pressure (288.15 K) [kPa] | vapor or sublimation pressure (293.15 K) [kPa] | vapor or sublimation pressure (298.15 K) [kPa] | vapor or sublimation pressure (303.15 K) [kPa] | vapor or sublimation pressure (308.15 K) [kPa] | vapor or sublimation pressure (313.15 K) [kPa] | vapor or sublimation pressure (318.15 K) [kPa] | vapor or sublimation pressure (323.15 K) [kPa] | SMILES
0.071 ± 0.002 | 0.093 ± 0.002 | 0.13 ± 0.002 | 0.178 ± 0.003 | 0.253 ± 0.003 | 0.346 ± 0.004 | 0.477 ± 0.006 | 0.627 ± 0.007 | 0.828 ± 0.009 | 1.101 ± 0.011 | CC12CCC(CC1)C(C)(C)O2 [1,3,3-trimethyl-2-oxabicyclo[2.2.2]octane]
2.264 ± 0.021 | 3.147 ± 0.024 | 4.327 ± 0.032 | 5.876 ± 0.04 | 7.798 ± 0.051 | 10.41 ± 0.066 | 13.71 ± 0.084 | 17.9 ± 0.1 | 23.06 ± 0.13 | 29.46 ± 0.15 | CCO [ethanol]
